# Experimental data reported in patent publication US20230277508A1, “USE OF COMPOUND AS CYP2E1 INHIBITOR” (SHANGHAI LING XI BIOTECHNOLOGY DEVELOPMENT CO., LTD., priority 2020, published 2023).
# How the values were obtained:
# CYP2E1 [1] = biological target: T1, CYP2E1 (Mus musculus, UniProt Q05421); assay: CYP2E1 activity (CZX metabolism by liver microsome) in LPS-induced mouse pulmonary fibrosis model; type: in vivo; settings: liver microsome of SMI0 high-dose group vs model group, P<0.05
# T1 construct: from tissue; host or cells: liver microsomes of treated model mice (calcium precipitation)
# T1 sequence (Q05421 whole entry): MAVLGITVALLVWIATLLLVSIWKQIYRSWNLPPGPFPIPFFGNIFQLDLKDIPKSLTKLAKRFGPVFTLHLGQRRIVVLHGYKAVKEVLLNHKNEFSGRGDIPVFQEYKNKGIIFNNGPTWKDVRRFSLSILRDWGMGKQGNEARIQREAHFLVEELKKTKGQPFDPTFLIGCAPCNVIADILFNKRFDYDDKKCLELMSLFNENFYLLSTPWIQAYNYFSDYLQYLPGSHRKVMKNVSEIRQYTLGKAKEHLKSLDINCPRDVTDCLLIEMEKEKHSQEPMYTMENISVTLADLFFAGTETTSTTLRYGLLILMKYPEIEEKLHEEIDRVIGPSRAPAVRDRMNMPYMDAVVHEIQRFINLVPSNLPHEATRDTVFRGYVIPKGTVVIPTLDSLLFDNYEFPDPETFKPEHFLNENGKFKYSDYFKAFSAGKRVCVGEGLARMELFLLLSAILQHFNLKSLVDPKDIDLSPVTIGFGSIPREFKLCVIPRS
# Description: (§1) Experimental method: A calcium precipitation method was used to prepare a mouse liver microsome, and a Braford method was used to determine a protein concentration in the microsome. An incubation system was prepared with 2×PBS, a CZX solution, and the liver microsome at a final concentration of 0.5 mg/mL, and then pre-incubated at 37° C. for 5 min; NADPH was added to initiate a reaction, and a resulting mixture was incubated at 37° C. for 30 min and then placed on ice to terminate the reaction; and ethyl acetate was added to extract 6-hydroxychlorzoxazone, a resulting mixture was vortexed and centrifuged, and a resulting upper organic phase was collected and blow-dried with nitrogen. A peak area of a CZX metabolite 6-hydroxychlorzoxazone was detected by HPLC under the following conditions: methanol:water=56:44, and detection wavelength: 287 nm. A concentration A C of the metabolite 6-hydroxychlorzoxazone was calculated through substitution into a standard curve; and a reaction rate of conversion of CZX into 6-hydroxychlorzoxazone was calculated according to V(pmol/min/mg)=(ΔC*1000)/(B*T) to evaluate an enzymatic activity of CYP2E1, where B represents a protein concentration of the microsome (mg/mL) and T represents an incubation time (min). A correlation between a CYP2E1 activity and a pulmonary fibrosis severity in mice was analyzed.
# [2] = test system: lung cancer cell line Lewis in situ transplanted tumor; assay: Mouse lung cancer model, in situ implantation of Lewis cells into lungs; type: in vivo, C57BL/6N mice
# Description: Experimental method: A female C57 mouse lung cancer model with an in situ transplanted tumor was prepared with a lung cancer cell line Lewis at a cell amount of 2*10^4. C57BL/6N mice were divided into a control group, a model group, a positive drug group, and an SMI0 intervention group, and the modeling took 18 days (control group, n=20; model group, n=20; positive drug group (20 mg/kg), n=15; SMI0 (3.3 mg/kg), n=15; SMI0 (10 mg/kg), n=20; and SMI0 (30 mg/kg), n=20). At the end of the experiment, a body weight of mice in each group was recorded, blood was collected from the orbit, the mice were sacrificed, and lung tissues and tumor tissues were collected and weighed. The weight and appearance of the lung (color, texture, or the like of the lung) were recorded. All tumors of an animal were cumulatively arranged together to indicate the tumorigenesis of the animal, and a cumulative weight of lung tumors in each animal was determined. Some lung specimens were subjected to HE staining, and then the lung lesion and tumorigenesis of mice in each group were observed.
# Experimental method: A WB method was used to detect the expression of […] cytokines TGF-β, IL-10, and IL-4, inflammation-associated signaling pathway proteins IL-6/p-STAT3 and p-ERK1/2/ERK1/2, and epithelial-mesenchymal transition (EMT)-associated proteins MMP-2 and MMP-9 in the mouse paracancerous lung tissue of each group and detect the expression of […] proteins caspase3 and Bcl-2 and an autophagy-associated protein p53 in the tumor tissue.
# CYP2E1 [3] = biological target: T1, CYP2E1; assay: CYP2E1 activity (liver microsome) in mouse Lewis lung cancer in situ model; type: in vivo; settings: SMI0 intervention group vs model group, P<0.05
# Description: as §1, with “between” for “between a”, “lung tumor weight” for “a pulmonary fibrosis severity”, “the Lewis lung cancer in situ model” for “mice”
# [4] = test system: LPS-induced sepsis in mice; assay: LPS-induced mouse sepsis model; type: in vivo; settings: vs model group
# Description: Mice: A mouse sepsis model was constructed through single intraperitoneal injection of LPS (15 mg/kg). 30 min before LPS administration, mice in the model group were administered with NS (0.5 mL/kg, i.g.), mice in the positive control group were administered with celecoxib (5 mg/kg, i.g.), and mice in the CYP2E1 inhibition group were administered with the compound SMI0 (90 mg/kg, i.g.). A body temperature of each mouse was measured and recorded at 6 h, 12 h, and 24 h after LPS administration, and the body temperature was measured […] in total throughout the experimental process. The animals were sacrificed at 24 h, blood samples were collected, and renal and cardiac function-associated indexes were determined (control group, n=8 mice; model group, n=8 mice; celecoxib group, n=8 mice; and SMI0 compound group, n=10 mice).
# [5] = test system: blood glucose level in diabetes rats; assay: Diabetes rat model induced by a high-fat diet and STZ; type: in vivo
# Description: Experimental method: A diabetes rat model was constructed by a high-fat diet+single intraperitoneal injection of STZ (40 mg/kg). A FBG level of higher than or equal to 16.7 mmol/L after two weeks of molding was a criterion for successful molding. Modeled rats were divided into various groups according to the blood glucose level. Rats in a model group were administered with NS, and rats in SMI0 low-dose and high-dose intervention groups were administered with the compound SMI0 at 30 mg/kg and 150 mg/kg every day, respectively. The FBG level in rats was determined and recorded regularly every week until the sixth week after administration. 10 rats were provided in each group.
# [6] = WB, SMI0 30 mg/kg vs model group, P<0.05
smiles,measurement,setting,value
CC(=O)c1scnc1C [SMI0],reaction rate V of CZX metabolism,CYP2E1 [1],significantly reduced
same,expression of the autophagy-associated protein p53 in the tumor tissue,"[2]; WB, SMI0 30 mg/kg vs model group, P<0.01",significantly increased
same,expression of Bcl-2 in the tumor tissue,[2]; [6],significantly reduced
same,expression of caspase3 in the tumor tissue,[2]; [6],significantly reduced
same,"expression of proinflammatory cytokines (TGF-β and IL-10), IL-6/p-STAT3, p-ERK1/2/ERK1/2, MMP-2 and MMP-9 in the paratumoral tissue","[2]; WB, SMI0 intervention group vs model group, P<0.05",significantly reduced
same,tumor proliferation inhibition rate,"[2]; as high as, SMI0 intervention group (3.3, 10, 30 mg/kg), 18 days, lung tumor weight",68.3%
same,CYP2E1 activity,CYP2E1 [3],significantly reduced
same,decrease in body temperature in the LPS-induced sepsis mouse model,"[4]; SMI0 90 mg/kg ig 30 min before LPS 15 mg/kg ip, 6 h, 12 h, 24 h",avoided
same,"levels of renal and cardiac function-associated indexes (urea nitrogen, creatinine, CK, LDH)","[4]; serum at 24 h, SMI0 90 mg/kg ig",significantly reduced
same,FBG levels,"[5]; SMI0 low-dose (30 mg/kg) and high-dose (150 mg/kg) daily, weeks 5 and 6, vs model group, P<0.05",significantly reduced
same,glucose tolerance,"[5]; glucose tolerance test, SMI0 30 and 150 mg/kg daily",significantly improved
